Legend:
KRAS G13C = KRAS G13C (Homo sapiens (Human), UniProt P01116+P62937, G13C); test: Ras-Raf disruption/FRET/MOA assay (BRAF RBD, Cyclophilin A); type: biochemical; conditions: read-out: KRAS G13C FRET IC50
Method in brief: (§1)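 25 μM tagless Cyclophilin A, 12.5 nM His6-Ras-GMPPNP and 50 nM GST-BRAF RBD in HEPES pH 7.3 buffer with 5 mM MgCl2, with compound (10-point 3-fold series from 30 μM final) for 3 h at 25 °C. Anti-His Eu and anti-GST APC then added for 1.5 h. IC50 from TR-FRET ratio decrease versus DMSO.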

NRAS WT = NRAS WT (Homo sapiens (Human), UniProt P01111+P62937); test: as above; type: biochemical
Sequence of NRAS WT (P01111 whole entry): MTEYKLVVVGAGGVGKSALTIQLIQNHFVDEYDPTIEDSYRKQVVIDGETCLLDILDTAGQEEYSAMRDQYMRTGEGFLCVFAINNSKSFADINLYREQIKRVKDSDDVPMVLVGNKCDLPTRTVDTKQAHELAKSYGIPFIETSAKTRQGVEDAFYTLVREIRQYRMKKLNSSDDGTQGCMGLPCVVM
Sequence of NRAS WT (P62937 whole entry): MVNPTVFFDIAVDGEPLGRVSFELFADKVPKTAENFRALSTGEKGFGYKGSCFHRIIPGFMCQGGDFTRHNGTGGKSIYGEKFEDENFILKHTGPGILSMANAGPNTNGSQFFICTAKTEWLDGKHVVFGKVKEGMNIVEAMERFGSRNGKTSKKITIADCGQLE
Method in brief: as §1

KRAS G12D = KRAS G12D (Homo sapiens (Human), UniProt P01116+P62937, G12D); test: as above; type: biochemical; conditions: read-out: KRAS G12D FRET IC50
Sequence of KRAS G12D (P01116 other isoform, or with tags, fused parts or gaps G12D): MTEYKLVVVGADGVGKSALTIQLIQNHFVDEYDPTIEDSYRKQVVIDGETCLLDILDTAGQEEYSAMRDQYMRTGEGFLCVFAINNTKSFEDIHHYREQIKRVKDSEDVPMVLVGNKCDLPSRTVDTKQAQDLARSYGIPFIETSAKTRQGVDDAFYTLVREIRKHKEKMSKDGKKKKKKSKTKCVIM
Sequence of KRAS G12D (P62937 whole entry): as the sequence (P62937 whole entry) above
Method in brief: as §1

KRAS G13D = KRAS G13D (Homo sapiens (Human), UniProt P01116+P62937, G13D); test: as above; type: biochemical; conditions: read-out: KRAS G13D FRET data IC50
Sequence of KRAS G13D (P01116 other isoform, or with tags, fused parts or gaps G13D): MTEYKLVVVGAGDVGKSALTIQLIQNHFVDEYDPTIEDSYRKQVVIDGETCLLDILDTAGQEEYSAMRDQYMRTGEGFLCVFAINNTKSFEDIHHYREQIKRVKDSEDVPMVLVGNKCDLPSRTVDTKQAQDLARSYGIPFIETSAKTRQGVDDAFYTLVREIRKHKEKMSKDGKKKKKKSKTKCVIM
Sequence of KRAS G13D (P62937 whole entry): as the sequence (P62937 whole entry) above
Method in brief: as §1

KRAS WT = KRAS WT (Homo sapiens (Human), UniProt P01116+P62937); test: as above; type: biochemical; conditions: read-out: KRAS WT FRET data IC50
Sequence of KRAS WT (P01116 other isoform, or with tags, fused parts or gaps): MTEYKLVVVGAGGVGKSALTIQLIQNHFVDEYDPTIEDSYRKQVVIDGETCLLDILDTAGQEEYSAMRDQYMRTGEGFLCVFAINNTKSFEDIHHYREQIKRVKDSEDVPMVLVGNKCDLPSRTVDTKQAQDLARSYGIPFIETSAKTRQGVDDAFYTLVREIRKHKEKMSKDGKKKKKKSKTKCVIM
Sequence of KRAS WT (P62937 whole entry): as the sequence (P62937 whole entry) above
Method in brief: as §1

KRAS G12V = KRAS G12V (Homo sapiens (Human), UniProt P01116+P62937, G12V); test: as above; type: biochemical; conditions: read-out: KRAS G12V FRET IC50
Sequence of KRAS G12V (P01116 other isoform, or with tags, fused parts or gaps G12V): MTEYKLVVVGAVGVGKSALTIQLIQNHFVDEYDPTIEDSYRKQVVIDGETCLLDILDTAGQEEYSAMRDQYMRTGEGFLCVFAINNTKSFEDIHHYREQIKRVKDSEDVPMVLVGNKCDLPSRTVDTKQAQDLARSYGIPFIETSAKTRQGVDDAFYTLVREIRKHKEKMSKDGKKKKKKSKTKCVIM
Sequence of KRAS G12V (P62937 whole entry): as the sequence (P62937 whole entry) above
Method in brief: as §1

KRAS Q61H = KRAS Q61H (Homo sapiens (Human), UniProt P01116+P62937, Q61H); test: as above; type: biochemical
Sequence of KRAS Q61H (P01116 other isoform, or with tags, fused parts or gaps Q61H): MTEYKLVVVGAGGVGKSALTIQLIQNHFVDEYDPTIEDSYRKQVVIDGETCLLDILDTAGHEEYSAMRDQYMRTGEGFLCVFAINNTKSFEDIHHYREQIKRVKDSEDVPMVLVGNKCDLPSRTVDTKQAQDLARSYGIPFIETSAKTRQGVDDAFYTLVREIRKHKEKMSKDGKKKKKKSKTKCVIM
Sequence of KRAS Q61H (P62937 whole entry): as the sequence (P62937 whole entry) above
Method in brief: as §1

NRAS Q61K = NRAS Q61K (Homo sapiens (Human), UniProt P01111+P62937, Q61K); test: as above; type: biochemical
Sequence of NRAS Q61K (P01111 whole entry Q61K): as the sequence (P01111 whole entry) above, with Q61K counted along it
Sequence of NRAS Q61K (P62937 whole entry): as the sequence (P62937 whole entry) above
Method in brief: as §1

KRAS G12C = KRAS G12C (Homo sapiens (Human), UniProt P01116+P62937, G12C); test: as above; type: biochemical; conditions: read-out: KRAS G12C FRET IC50
Sequence of KRAS G12C (P01116-2 other isoform, or with tags, fused parts or gaps G12C): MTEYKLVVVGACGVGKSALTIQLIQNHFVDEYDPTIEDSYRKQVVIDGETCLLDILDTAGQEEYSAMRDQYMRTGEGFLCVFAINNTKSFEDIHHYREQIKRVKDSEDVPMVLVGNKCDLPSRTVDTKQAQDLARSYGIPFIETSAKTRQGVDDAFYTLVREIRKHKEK
Sequence of KRAS G12C (P62937 whole entry): as the sequence (P62937 whole entry) above
Method in brief: as §1

NRAS Q61R = NRAS Q61R (Homo sapiens (Human), UniProt P01111+P62937, Q61R); test: as above; type: biochemical
Sequence of NRAS Q61R (P01111 whole entry Q61R): as the sequence (P01111 whole entry) above, with Q61R counted along it
Sequence of NRAS Q61R (P62937 whole entry): as the sequence (P62937 whole entry) above
Method in brief: as §1

[1] = tested on: Capan-1 cells (K-Ras G12V); test: CellTiter-Glo cell viability, Capan-1; type: cell-based, human; conditions: Homo sapiens, CAPAN-1, 120 h, K-Ras G12V, 5-day treatment; read-out: Capan-1 Cell Viability IC50
Method in brief: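 Cells seeded, compound dispensed straight into wells, 5-day exposure. Plates brought to room temperature ~30 min, CellTiter-Glo luminescence measured. Normalized to DMSO (%), 4-parameter logistic fit.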

[2] = target: K-Ras G12C(GMP-PNP) binding to BRAF RBD (Homo sapiens (Human), UniProt P01116+P62937, G12C); test: Disruption of BRAF RBD interaction with K-Ras (FRET / MOA assay), K-Ras G12C; type: biochemical; conditions: read-out: KRAS G12C FRET IC50
Sequence of K-Ras G12C(GMP-PNP) binding to BRAF RBD (P01116 other isoform, or with tags, fused parts or gaps G12C): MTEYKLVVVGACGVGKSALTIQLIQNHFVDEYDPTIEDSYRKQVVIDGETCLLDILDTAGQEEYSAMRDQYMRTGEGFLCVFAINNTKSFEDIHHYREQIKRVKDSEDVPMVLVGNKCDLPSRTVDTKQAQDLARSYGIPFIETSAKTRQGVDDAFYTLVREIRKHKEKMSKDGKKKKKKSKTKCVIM
Sequence of K-Ras G12C(GMP-PNP) binding to BRAF RBD (P62937 whole entry): as the sequence (P62937 whole entry) above
Method in brief: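 Compounds promote ternary complex of nucleotide-loaded Ras (here K-Ras G12C·GMP-PNP; other Ras mutants substituted) with cyclophilin A, disrupting BRAF RBD binding. 10-point 3-fold series from 30 μM final, 3 h at 25 °C, then anti-His Eu (10 nM) and anti-GST APC (50 nM) for 1.5 h. TR-FRET ratio decrease versus DMSO gave IC50.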

Measured: IC50

Sequence of KRAS G13C (P01116 other isoform, or with tags, fused parts or gaps G13C): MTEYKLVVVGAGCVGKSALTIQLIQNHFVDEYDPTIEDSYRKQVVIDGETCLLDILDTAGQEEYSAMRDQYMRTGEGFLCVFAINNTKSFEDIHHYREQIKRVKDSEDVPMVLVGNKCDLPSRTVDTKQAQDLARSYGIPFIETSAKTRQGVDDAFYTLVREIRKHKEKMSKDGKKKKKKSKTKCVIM
Sequence of KRAS G13C (P62937 whole entry): as the sequence (P62937 whole entry) above

CCn1c(-c2cccnc2[C@H](C)OC)c2c3cc(ccc31)-c1cccc(c1)C[C@H](NC(=O)[C@H](C(C)C)N(C)C(C)=O)C(=O)N1CCC[C@H](N1)C(=O)OCC(C)(C)C2 [Compound A61]
1000 to 10000 nM: KRAS G13C | NRAS WT | KRAS G13D | KRAS WT | KRAS G12V | NRAS Q61K | KRAS G12C | NRAS Q61R | [1]
> 10000 nM: KRAS G12D
100 to 1000 nM: KRAS Q61H

CCn1c(-c2cccnc2[C@H](C)OC)c2c3cc(ccc31)-c1cc(O)cc(c1)C[C@H](NC(=O)[C@@H]1[C@H]3C[C@H]3CN1C(C)=O)C(=O)N1CCC[C@H](N1)C(=O)OCC(C)(C)C2 [Compound A207]
> 10000 nM: KRAS G12D | [1]
10 to 100 nM: [2]
1000 to 10000 nM: NRAS WT | KRAS G13D | KRAS WT | KRAS G12V | NRAS Q61K | NRAS Q61R
100 to 1000 nM: KRAS G13C | KRAS Q61H | KRAS G12C

CCn1c(-c2cccnc2[C@H](C)OC)c2c3cc(ccc31)-c1cc(O)cc(c1)C[C@H](NC(=O)[C@@H]1[C@@H](C)CCCN1C(C)=O)C(=O)N1CCC[C@H](N1)C(=O)OCC(C)(C)C2 [Compound A324]
10 to 100 nM: KRAS G13C | KRAS Q61H
100 to 1000 nM: NRAS WT | KRAS G13D | KRAS WT | KRAS G12V | NRAS Q61K | KRAS G12C
< 10 nM: [2]
1000 to 10000 nM: KRAS G12D | NRAS Q61R | [1]

CCn1c(-c2cccnc2[C@H](C)OC)c2c3cc(ccc31)-c1csc(n1)C[C@H](NC(=O)C1(F)CCC1)C(=O)N1CCC[C@H](N1)C(=O)OCC(C)(C)C2 [Compound A361]
1000 to 10000 nM: KRAS G12D
100 to 1000 nM: KRAS G13C | NRAS WT | KRAS G13D | KRAS WT | KRAS G12V | KRAS Q61H | NRAS Q61K | KRAS G12C | NRAS Q61R | [1]

CCn1c(-c2cccnc2[C@H](C)OC)c2c3cc(ccc31)-c1csc(n1)C[C@H](NC(=O)C1(F)CC1)C(=O)N1CCC[C@H](N1)C(=O)OCC(C)(C)C2 [Compound A362]
1000 to 10000 nM: KRAS G12D | KRAS G13D | NRAS Q61R
100 to 1000 nM: KRAS G13C | NRAS WT | KRAS WT | KRAS G12V | KRAS Q61H | NRAS Q61K | KRAS G12C | [1]

CCn1c(-c2cccnc2[C@H](C)OC)c2c3cc(ccc31)-c1cc(O)cc(c1)C[C@H](NC(=O)[C@H](C(C)C)N(C)C(=O)C13CC(CO1)C3)C(=O)N1CCC[C@H](N1)C(=O)OCC(C)(C)C2 [Compound A406]
10 to 100 nM: KRAS G13C | NRAS WT | KRAS WT | KRAS Q61H | KRAS G12C
100 to 1000 nM: KRAS G12D | KRAS G13D | KRAS G12V | NRAS Q61K | NRAS Q61R | [2] | [1]

CCn1c(-c2cc(N3CCN(C)CC3)cnc2[C@H](C)OC)c2c3cc(ccc31)-c1csc(n1)C[C@H](NC(=O)[C@H](C(C)C)N(C)C(=O)[C@H]1CCCS1(=O)=O)C(=O)N1CCC[C@H](N1)C(=O)OCC(C)(C)C2 [Compound A439]
1000 to 10000 nM: KRAS G12D | KRAS G13D | KRAS G12V
100 to 1000 nM: KRAS G13C | NRAS WT | KRAS WT | KRAS Q61H | NRAS Q61K | KRAS G12C | NRAS Q61R
10 to 100 nM: [1]

CCn1c(-c2cc(N3CCN(C)CC3)cnc2[C@H](C)OC)c2c3cc(ccc31)-c1csc(n1)C[C@H](NC(=O)[C@H](C(C)C)N(C)C(=O)[C@@H]1CCCS1(=O)=O)C(=O)N1CCC[C@H](N1)C(=O)OCC(C)(C)C2 [Compound A440]
10 to 100 nM: [2] | [1]
100 to 1000 nM: NRAS WT | KRAS WT | KRAS Q61H | NRAS Q61K | KRAS G12C | NRAS Q61R
1000 to 10000 nM: KRAS G13C | KRAS G12D | KRAS G13D | KRAS G12V

CCn1c(-c2cccnc2[C@H](C)OC)c2c3cc(ccc31)-c1csc(n1)C[C@H](NC(=O)[C@H](C(C)C)N(C)C(=O)N1CCC[C@@H]1CN(C)C)C(=O)N1CCC[C@H](N1)C(=O)OCC(C)(C)C2 [Compound A518]
1000 to 10000 nM: KRAS G12V | NRAS Q61K | NRAS Q61R
100 to 1000 nM: KRAS G13C | NRAS WT | KRAS G12D | KRAS G13D | KRAS WT | KRAS Q61H | KRAS G12C
10 to 100 nM: [1]

CCn1c(-c2cccnc2[C@H](C)OC)c2c3cc(ccc31)-c1csc(n1)C[C@H](NC(=O)[C@H](C(C)C)N(CCc1ccncc1)C1CC1)C(=O)N1CCC[C@H](N1)C(=O)OCC(C)(C)C2 [Compound A556]
1000 to 10000 nM: KRAS G12D | KRAS G13D | KRAS G12V
100 to 1000 nM: KRAS G13C | NRAS WT | KRAS WT | KRAS Q61H | NRAS Q61K | KRAS G12C | NRAS Q61R | [1]

CCn1c(-c2cccnc2[C@H](C)OC)c2c3cc(ccc31)-c1csc(n1)C[C@H](NC(=O)[C@H](C(C)C)N(C)C(=O)N1CC[C@@H](F)[C@H](N)C1)C(=O)N1CCC[C@H](N1)C(=O)OCC(C)(C)C2 [Compound A559]
10 to 100 nM: KRAS Q61H
100 to 1000 nM: KRAS G13C | NRAS WT | KRAS G12D | KRAS G13D | KRAS WT | KRAS G12V | NRAS Q61K | KRAS G12C | NRAS Q61R | [1]

CCn1c(-c2cccnc2[C@H](C)OC)c2c3cc(ccc31)-c1csc(n1)C[C@H](NC(=O)[C@H](C(C)C)N(C)C(=O)[C@@H]1OCC[C@@H]1c1ccccc1)C(=O)N1CCC[C@H](N1)C(=O)OCC(C)(C)C2 [Compound A585]
100 to 1000 nM: KRAS G13C | NRAS WT | KRAS WT | KRAS G12V | KRAS Q61H | NRAS Q61K | KRAS G12C | NRAS Q61R | [1]
1000 to 10000 nM: KRAS G12D | KRAS G13D

CCn1c(-c2cccnc2[C@H](C)OC)c2c3cc(ccc31)-c1cccc(c1)C[C@H](NC(=O)[C@H](C(C)C)N(C)C(=O)[C@@H]1OCC[C@@H]1c1ccccc1)C(=O)N1CCC[C@H](N1)C(=O)OCC(C)(C)C2 [Compound A586]
100 to 1000 nM: KRAS G13C | NRAS WT | KRAS G12D | KRAS G13D | KRAS WT | KRAS G12V | KRAS Q61H | NRAS Q61K | NRAS Q61R | [1]
10 to 100 nM: KRAS G12C

CCn1c(-c2cccnc2[C@H](C)OC)c2c3cc(ccc31)-c1csc(n1)C[C@H](NC(=O)[C@H](C(C)C)N(C)C(=O)N1CCC[C@H]1c1ccccc1)C(=O)N1CCC[C@H](N1)C(=O)OCC(C)(C)C2 [Compound A599]
100 to 1000 nM: KRAS Q61H
1000 to 10000 nM: KRAS G13C | NRAS WT | KRAS G12D | KRAS G13D | KRAS WT | KRAS G12V | NRAS Q61K | KRAS G12C | NRAS Q61R | [1]

CCn1c(-c2cccnc2[C@H](C)OC)c2c3cc(ccc31)-c1cc(O)cc(c1)C[C@H](NC(=O)[C@H](C(C)C)N(C)C(=O)[C@]1(F)CCN(C(=O)OC)C1)C(=O)N1CCC[C@H](N1)C(=O)OCC(C)(C)C2 [Compound A616]
10 to 100 nM: KRAS G13C | KRAS WT | KRAS Q61H | KRAS G12C
100 to 1000 nM: NRAS WT | KRAS G12D | KRAS G13D | KRAS G12V | NRAS Q61K | NRAS Q61R | [1]
